By Kd is commonly meant the constant that tells how readily two partners part at equilibrium. The low end stands for higher affinity, the high end for lower affinity.

SMILES strings stand for the structures. Structures can show the parent of a compound that is named as a salt.

The source of these data is paper PMC12469831, “The Odorant-Binding Proteins AspiOBP1 and AspiOBP2 in Aleurocanthus spiniferus Are Involved in the Perception of Host Volatiles” (International Journal of Molecular Sciences, 2025).

The assay addresses T1, AspiOBP2.
T1 construct: signal peptide removed; pET-30a(+) BamHI/EcoRI, E. coli BL21; His-tag kept; about 27 kDa predicted; clone primers encode mature start ETSTVDS and C-terminus PPPKP
Briefly: fluorescent probe titration, Scatchard. The class given is binding, Aleurocanthus spiniferus. The conditions noted are these: 50 mmol/L Tris-HCl pH 7.4, 2 µmol/L protein, excitation 295 nm, His-tag kept.

In the case of `O=S(=O)(O)c1cccc2c(-c3ccc(Nc4ccccc4)c4c(S(=O)(=O)O)cccc34)ccc(Nc3ccccc3)c12` [bis-ANS, 4,4′-Dianilino-1,1′-binaphthyl-5,5′-disulfonic acid, dipotassium salt], the Kd came to 2.26 ± 0.47 µM.
